One experiment relates to A549. Kind of experiment: cells. The conditions noted are these: Homo sapiens, A549, 72 h.
Experiment [1] in a line: cells. To be noted: Homo sapiens, NCI-H460, 72 h.
Description: Cytotoxicity against human H460 cells assessed as inhibition of cell proliferation after 72 hrs by MTT assay
Another experiment concerns HT-29. The experiment in a line: cells. To be noted: Homo sapiens, HT-29, 72 h.
A short description of experiment [2]: cells. The conditions noted are these: Homo sapiens, MKN-45, 72 h.
Description: Cytotoxicity against human MKN45 cells assessed as inhibition of cell proliferation after 72 hrs by MTT assay

Description for A549: Cytotoxicity against human A549 cells assessed as inhibition of cell proliferation after 72 hrs by MTT assay
Description for HT-29: Cytotoxicity against human HT-29 cells assessed as inhibition of cell proliferation after 72 hrs by MTT assay

For the compound `COc1cc2c(Oc3ccc(NC(=O)c4c(C)n(-c5ccccc5C(F)(F)F)c(=O)n4C)cc3F)ccnc2cc1OCCCN1CCN(C)CC1`, the IC50 with A549 is 370 nM; in “cells [1]” it was 190 nM; with HT-29 it was 130 nM; in the experiment “cells [2]” it was 69 nM.

On to `COc1cc2c(Oc3ccc(NC(=O)c4c(C)n(-c5ccccc5)c(=O)n4C)cc3F)ccnc2cc1OCCCN1CCCCC1`, for which the IC50 with A549 stood at 790 nM; in “cells [1]”, 650 nM; with HT-29, 560 nM; in “cells [2]”, 240 nM.

As for `COc1ccc(-n2c(C)c(C(=O)Nc3ccc(Oc4ccnc5cc(OCCCN6CCC(C)CC6)c(OC)cc45)c(F)c3)n(C)c2=O)cc1`, the half-inhibitory concentration (IC50) in the experiment with A549 amounted to 1040 nM; in the experiment “cells [1]”, 940 nM; in the experiment with HT-29, 790 nM; in “cells [2]” it was 490 nM.

Consider `COc1cc2c(Oc3ccc(NC(=O)c4c(C)n(-c5ccccc5Cl)c(=O)n4C)cc3F)ccnc2cc1OCCCN1CCN(C)CC1`, for which the IC50 with A549 was 310 nM; in the experiment “cells [1]”, 130 nM; with HT-29, 120 nM; in the experiment “cells [2]”, 37 nM.

Turning to `COc1cc2c(Oc3ccc(NC(=O)c4c(C)n(-c5ccc(C)cc5)c(=O)n4C)cc3F)ccnc2cc1OCCCN1CCC(C)CC1`, the IC50 in the experiment with A549 worked out at 1120 nM; in “cells [1]”, 940 nM; in the experiment on HT-29, 790 nM; in the experiment “cells [2]” it was 430 nM.

With `COc1cc2c(Oc3ccc(NC(=O)c4c(C)n(-c5ccc(OC(F)(F)F)cc5)c(=O)n4C)cc3F)ccnc2cc1OCCCN1CCN(C)CC1`, the IC50 in the experiment on A549 was 440 nM; in “cells [1]” it was 340 nM; in the experiment on HT-29, 270 nM; in “cells [2]”, 120 nM.

With `COc1cc2c(Oc3ccc(NC(=O)c4c(C)n(-c5ccccc5)c(=O)n4C)cc3F)ccnc2cc1OCCCN1CCN(C)CC1`, the IC50 worked out at 600 nM in the experiment with A549, 420 nM in “cells [1]”, 300 nM in the experiment with HT-29 and 190 nM in the experiment “cells [2]”.

In the case of `COc1cc2c(Oc3ccc(NC(=O)c4c(C)n(-c5cccc(C(F)(F)F)c5)c(=O)n4C)cc3F)ccnc2cc1OCCCN1CCC(C)CC1`, the IC50 in the experiment with A549 was found to be 880 nM; in the experiment “cells [1]”, 580 nM; in the experiment on HT-29 it was 520 nM; in “cells [2]”, 320 nM.

For `COc1cc2c(Oc3ccc(NC(=O)c4c(C)n(-c5ccc(Br)cc5)c(=O)n4C)cc3F)ccnc2cc1OCCCN1CCC(C)CC1`, the IC50 in the experiment on A549 was 680 nM; in the experiment “cells [1]”, 550 nM; with HT-29 it was 280 nM; in the experiment “cells [2]”, 160 nM.

Turning to `COc1cc2c(Oc3ccc(NC(=O)c4c(C)n(-c5ccc(F)c(F)c5)c(=O)n4C)cc3F)ccnc2cc1OCCCN1CCN(C)CC1`, the half-inhibitory concentration (IC50) in the experiment on A549 amounted to 400 nM; in the experiment “cells [1]” it was 240 nM; in the experiment on HT-29 it was 180 nM; in “cells [2]”, 86 nM.

Regarding `COc1cc2c(Oc3ccc(NC(=O)c4c(C)n(-c5ccc(F)c(F)c5)c(=O)n4C)cc3F)ccnc2cc1OCCCN1CCOCC1`, the IC50 came out at 620 nM with A549, 540 nM in “cells [1]”, 390 nM in the experiment with HT-29 and 170 nM in the experiment “cells [2]”.

Take `COc1cc2c(Oc3ccc(NC(=O)c4c(C)n(-c5ccc(F)cc5)c(=O)n4C)cc3F)ccnc2cc1OCCCN1CCC(C)CC1`: the IC50 in the experiment with A549 was determined as 520 nM; in the experiment “cells [1]”, 250 nM; in the experiment on HT-29 it was 240 nM; in the experiment “cells [2]”, 84 nM.

Consider `COc1cc2c(Oc3ccc(NC(=O)c4c(C)n(-c5ccc(C)cc5)c(=O)n4C)cc3F)ccnc2cc1OCCCN1CCN(C)CC1`, for which the IC50 in the experiment with A549 was found to be 830 nM; in the experiment “cells [1]”, 510 nM; in the experiment on HT-29 it was 490 nM; in “cells [2]” it was 360 nM.

For `COc1cc2c(Oc3ccc(NC(=O)c4c(C)n(-c5ccc(C(F)(F)F)cc5)c(=O)n4C)cc3F)ccnc2cc1OCCCN1CCN(C)CC1`, the IC50 in the experiment with A549 is 500 nM; in the experiment “cells [1]”, 360 nM; in the experiment with HT-29, 260 nM; in “cells [2]”, 98 nM.

For `COc1cc2c(Oc3ccc(NC(=O)c4c(C)n(-c5ccccc5)c(=O)n4C)cc3F)ccnc2cc1OCCCN1CCCC1`, the IC50 in the experiment on A549 is 1460 nM; in “cells [1]”, 1030 nM; in the experiment on HT-29, 940 nM; in the experiment “cells [2]”, 510 nM.

For `COc1cc2c(Oc3ccc(NC(=O)c4c(C)n(-c5ccccc5)c(=O)n4C)cc3F)ccnc2cc1OCCCN1CCC(C)CC1`, the IC50 in the experiment with A549 turned out to be 660 nM; in “cells [1]”, 590 nM; with HT-29 it was 360 nM; in the experiment “cells [2]” it was 210 nM.

As for `COc1cc2c(Oc3ccc(NC(=O)c4c(C)n(-c5ccc(Br)cc5)c(=O)n4C)cc3F)ccnc2cc1OCCCN1CCN(C)CC1`, the IC50 in the experiment on A549 amounted to 480 nM; in the experiment “cells [1]”, 360 nM; in the experiment with HT-29, 290 nM; in “cells [2]” it was 120 nM.

For the compound `COc1cc2c(Oc3ccc(NC(=O)c4c(C)n(-c5ccc(F)c(Cl)c5)c(=O)n4C)cc3F)ccnc2cc1OCCCN1CCN(C)CC1`, the IC50 in the experiment with A549 worked out at 380 nM; in the experiment “cells [1]”, 210 nM; in the experiment with HT-29, 140 nM; in the experiment “cells [2]”, 73 nM.

Take `COc1cc2c(Oc3ccc(NC(=O)c4c(C)n(-c5ccccc5Cl)c(=O)n4C)cc3F)ccnc2cc1OCCCN1CCC(C)CC1`: the IC50 with A549 amounted to 320 nM; in the experiment “cells [1]”, 180 nM; in the experiment on HT-29, 150 nM; in the experiment “cells [2]”, 43 nM.

Turning to `COc1cc2c(Oc3ccc(NC(=O)c4c(C)n(-c5ccccc5)c(=O)n4C)cc3F)ccnc2cc1OCCCN1CCOCC1`, the 50% inhibitory concentration (IC50) in the experiment on A549 was found to be 980 nM; in the experiment “cells [1]”, 790 nM; with HT-29, 740 nM; in the experiment “cells [2]”, 320 nM.

`COc1ccc(-n2c(C)c(C(=O)Nc3ccc(Oc4ccnc5cc(OCCCN6CCN(C)CC6)c(OC)cc45)c(F)c3)n(C)c2=O)cc1`: the IC50 in the experiment with A549 stood at 960 nM; in “cells [1]”, 690 nM; with HT-29, 560 nM; in “cells [2]”, 440 nM.

Regarding `COc1cc2c(Oc3ccc(NC(=O)c4c(C)n(-c5ccc(F)cc5)c(=O)n4C)cc3F)ccnc2cc1OCCCN1CCN(C)CC1`, the IC50 turned out to be 430 nM in the experiment on A549, 260 nM in “cells [1]”, 190 nM in the experiment with HT-29 and 67 nM in the experiment “cells [2]”.

Take `COc1cc2c(Oc3ccc(NC(=O)c4c(C)n(-c5cccc(C(F)(F)F)c5)c(=O)n4C)cc3F)ccnc2cc1OCCCN1CCN(C)CC1`: the IC50 in the experiment on A549 stood at 770 nM; in “cells [1]” it was 570 nM; with HT-29, 430 nM; in the experiment “cells [2]” it was 200 nM.

For `COc1cc2c(Oc3ccc(NC(=O)c4c(C)n(-c5ccc(Cl)cc5)c(=O)n4C)cc3F)ccnc2cc1OCCCN1CCC(C)CC1`, the IC50 in the experiment on A549 amounted to 420 nM; in the experiment “cells [1]”, 200 nM; in the experiment with HT-29, 170 nM; in “cells [2]”, 62 nM.

As for `COc1cc2c(Oc3ccc(NC(=O)c4c(C)n(-c5ccc(C(F)(F)F)cc5)c(=O)n4C)cc3F)ccnc2cc1OCCCN1CCC(C)CC1`, the IC50 with A549 was found to be 540 nM; in the experiment “cells [1]”, 410 nM; with HT-29, 360 nM; in the experiment “cells [2]”, 130 nM.

On to `COc1cc2c(Oc3ccc(NC(=O)c4c(C)n(-c5ccccc5C(F)(F)F)c(=O)n4C)cc3F)ccnc2cc1OCCCN1CCC(C)CC1`, for which the IC50 in the experiment on A549 was 450 nM; in “cells [1]”, 220 nM; in the experiment with HT-29 it was 140 nM; in “cells [2]”, 81 nM.

With `COc1cc2c(Oc3ccc(NC(=O)c4c(C)n(-c5ccc(F)c(Cl)c5)c(=O)n4C)cc3F)ccnc2cc1OCCCN1CCC(C)CC1`, the IC50 was determined as 430 nM in the experiment with A549, 250 nM in “cells [1]”, 200 nM in the experiment on HT-29 and 89 nM in the experiment “cells [2]”.

Turning to `COc1cc2c(Oc3ccc(NC(=O)c4c(C)n(-c5ccc(F)c(F)c5)c(=O)n4C)cc3F)ccnc2cc1OCCCN1CCC(C)CC1`, the IC50 with A549 was 530 nM; in the experiment “cells [1]”, 230 nM; in the experiment with HT-29, 230 nM; in the experiment “cells [2]” it was 95 nM.

For the compound `COc1cc2c(Oc3ccc(NC(=O)c4c(C)n(-c5ccc(Cl)cc5)c(=O)n4C)cc3F)ccnc2cc1OCCCN1CCN(C)CC1`, the IC50 in the experiment with A549 is 360 nM; in “cells [1]”, 170 nM; in the experiment on HT-29, 140 nM; in the experiment “cells [2]”, 58 nM.

On to `COc1cc2c(Oc3ccc(NC(=O)c4c(C)n(-c5ccc(OC(F)(F)F)cc5)c(=O)n4C)cc3F)ccnc2cc1OCCCN1CCC(C)CC1`, for which the IC50 was 620 nM in the experiment on A549, 590 nM in “cells [1]”, 400 nM in the experiment on HT-29 and 140 nM in “cells [2]”.

Source of the values: ChEMBL document CHEMBL3593176, “Design and biological evaluation of novel 4-(2-fluorophenoxy)quinoline derivatives bearing an imidazolone moiety as c-Met kinase inhibitors” (Bioorg Med Chem, 2015).
